Experiments:
[1] = test system: anaesthetized (pentobarbitone sodium 35 mg/kg i.v.) cat; experiment: Effect on blood pressure and adrenaline vasopressure response in anaesthetized cat (Table 2); assay type: in vivo
Description: Table 2: Effect on blood pressure, heart rate and adrenaline vasopressure response at an anaesthetized (pentobarbitone sodium 35 mg/kg i.v.) cat.
(§1) • (a) Cats (2.6-4.0 kg) of either sex anaesthetized with pentobarbitone sodium ([…] i.v.) and showing basal mean arterial blood pressure below 150 mm (Hg) were categorised as normotensive and above 150 mm Hg as hypertensive. Arterial blood pressure (BP) was recorded from one of the carotid artery through a stathum P23 DC pressure transducer and 7P1 low level DC preamplifier on a Grass Model P7 Polygraph, Signals from 7P 1 preamplifier were used to trigger 7P4 Tachograph preamplifier for recording the heart rate (HR). Right femoral vein and Trachea were cannulated for intravenous injections and artificial ventilation respectively. Control responses to intravenous injection of noradrenaline (2-4 ug); acetyl choline (1-2 ug); histamine (1-2 ug) and isoprenaline (1-2 ug) were taken before and after the administration of test doses of each compounds.

[2] = test system: Isolated Guinea pig ileum preparation; experiment: Isolated Guinea pig ileum preparation, antihistaminic activity; conditions: 0.5-5.0 ug/ml
[3] = test system: cat; experiment: In vivo drug antagonism studies in cat; conditions: 2 uMol dose i.v. in cat
[4] = test system: Normotensive cat; experiment: Effect on blood pressure, heart rate and adrenaline vasopressor response, anaesthetized normotensive cat; assay type: in vivo; conditions: 10 uMol/kg i.d.
Description: (§2) 2. Effect on blood pressure, heart rate and adrenaline vasopressor response of anaesthetized (pentobarbitone sodium 40 & 60 mg/kg i.p. in cat and rat respectively) normotensive & hypertensive rat & cat model preparations.
as §1

[5] = test system: Rat aortic ring preparation; experiment: Rat aortic ring preparation, NE induced contraction
[6] = test system: Langendorff perfused rat heart preparation; experiment: Cardioprotective activity, Langendorff perfused rat heart, prolonged period of ischemic insult
Description: Further, in Langendorff perfused rat heart preparation subjected to even up to 90 min. global ischemia, the compound at 0.001 ug/ml conc. given at the time of reperfusion revived normal rhythmic contraction started within 2 min. (Table 1) and incidence of reperfusion induced arrhythmia were abolished. Table 1: Compound administered at the time reperfusion at the dose of 0.001 ug/ml on prolong period (90min.) of ischemic insult.
The rats were killed by decapitation, heart were rapidly excised and placed in ice-cold HEPES tyrode buffer. Then isolated hearts were perfused retrogradely through coronary arteries using the Langendorff technique. The perfusion buffer consisted (in mM) NaCl 137, KCl 5.4, CaCl2 1.8, MgCl 2 1.0, glucose 11.2 and HEPES 3.0. The buffer (pH 7.4) was continuously gassed with oxygen and maintained at 37°C. Coronary flow rate was maintained at 10 ml/min. The heart contracted spontaneously. The perfused heart was allowed to equilibrate for 30 min. before initiation of any insult protocol. The test compounds were given at the time of reperfusion. Some of the compounds were dissolved in ethanol. Final concentration of ethanol in the perfusion buffer was 0.0001% and had no effect of its own on the parameter used. • (a) For brief period of ischemic insult (Hideo et al. Pathophysiology and pathogenesis of stunned myocardium. J. Clin. Invest., 79, 950-961, 1987). Ischemia was initiated by stopping the flow for 16 min. followed by 30 min. reperfusion period. The durations were decided on the initial pilot experiments leading to 50% recovery of function. • (b) For prolong period of ischemic insult (Becker, L.C. & Ambrosio, G. Myocardial consequences of reperfusion Prog. Cardiovas. Dis., 30, 23-44, 1987). Ischemia was initiated by stopping the flow for […] by 30 min. reperfusion.

[7] = test system: Isolated aortic strip; experiment: Isolated aortic strip, endothelin induced contraction
[8] = test system: histamine induced bronchoconstriction; experiment: Konzett and Rossler preparation
[9] = test system: Hypertensive rat model preparation; experiment: Effect on blood pressure, heart rate and adrenaline vasopressor response, anaesthetized hypertensive rat model preparation; assay type: in vivo
Description: as §2, §1

[10] = 0.001 ug/ml given at the time of reperfusion, up to 90 min. global ischemia

Structure (SMILES): CCc1ccccc1N1CCN(CCCN2CCCCC2=O)CC1 [Ar=C6H4-2-C2H5, n=2, 1-[4-(Z-ethylphenyll)piperazin-1-yl]-3-[2-oxopiperidin-1-yl]propane]
- B. P. fall % ([1]; 2.0 umol/kg i.v.): 35%
- Dur. ([1]; 2.0 umol/kg i.v.): 55 min
- Adrenaline vasopressure response % inhibition ([1]; 10.0 umol/kg i.v.): R (R=Reversal)
- B. P. fall % ([1]; 10.0 umol/kg i.v.): 20%
- Dur. ([1]; 10.0 umol/kg i.v.): 63 min

Structure (SMILES): O=C1CCCCN1CCCN1CCN(c2cccc(C(F)(F)F)c2)CC1 [Ar=C6H4-3-CF3, n=2, 1-[4-(3-trifluoromethylphenyl)piperazin-1-yl]-3-[2-oxopiperidin-1-yl]propane]
- Dur. ([1]; 10.0 umol/kg i.v.): Tr

Structure (SMILES): CCc1ccc(N2CCN(CCCN3CCCC3=O)CC2)cc1 [Ar=C6H4-4-C2H5, n=1, 1-[4-(4-ethylphenyl)piperazin-1-yl]-3-[2-oxopyrrolidin-1-yl]propane]
- Dur. ([1]; 2.0 umol/kg i.v.): Tr

Structure (SMILES): O=C1CCCN1CCCN1CCN(c2ccc(F)cc2)CC1 [Ar=C6H4-4-F, n=1, 1-[4-(4-fluorophenyl)piperazin-1-yl]-3-[2-oxopyrrolidin-1-yl]propane]
- antihistaminic activity [2]: significant antihistaminic activity
- reduction of the fall in blood pressure ([3]; glibenclamide pretreatment): only partially reduced
- reduction of antihypertensive effect ([3]; pretreatment with Dup-753): 33%
- alteration of antihypertensive effect ([3]; pretreatment with atropine sulphate): failed to alter
- alteration of antihypertensive effect ([3]; pretreatment with mepyramine maleate): failed to alter
- alteration of antihypertensive effect ([3]; pretreatment with propranolol): failed to alter
- alteration of antihypertensive effect ([3]; pretreatment with yohimbine): failed to alter
- Heart rate Pre/post treatment (post) ([4]; post treatment): 170 beats/min
- Heart rate Pre/post treatment (pre) ([4]; pre treatment): 200 beats/min
- NE induced contraction [5]: inhibited
- incidence of reperfusion induced arrhythmia [6, 10]: abolished
- time to start of normal rhythmic contraction [6, 10]: ≤ 2 min
- Endothelin induced contraction [7]: inhibited significantly
- Response to endothelin after washing the preparation ([7]; after washing): relaxation rather than contraction
- antihistaminic activity against histamine induced bronchoconstriction [8]: some antihistaminic activity
- Heart rate Pre/post treatment (post) ([9]; 5 uMol/kg i.d.): 320 beats/min
- Heart rate Pre/post treatment (post) ([9]; 10 uMol/kg i.d.): 340 beats/min
- Heart rate Pre/post treatment (pre) ([9]; 20 uMol/kg i.d., pre treatment): 310 beats/min

Structure (SMILES): COC(=O)C1=C(C)NC(C)=C(C(=O)OC)C1c1ccccc1[N+](=O)[O-] [Nifedipine, reference compound]
- Onset ([6]; 10^-6M, ischemic insult 45 min.): 2.5 min

— patent publication EP0913397B1, “A proces for the synthesis of 1-(4-Arylpiperazine-1-y1)-3-(2-oxypyrrolidin/piperidin-1-yl)propanes as therapeutic agents for hypertension, ischemia, cardiovascular and other adrenergic receptors related disorders” (COUNCIL OF SCIENTIFIC AND INDUSTRIAL RESEARCH, priority 1997, dated 1999)
